{
  "source": "patent US10681909B2",
  "about": "“Herbicidal triazoles” (FMC Corporation, priority 2014, dated 2020)",
  "key": {"[1]": {"tested_on": "velvetleaf", "assay": "Test A preemergence", "format": "in vivo, Abutilon theophrasti", "conditions": "Abutilon theophrasti, pre-emergence, 240 h, 0 to 100 scale (0 no effect, 100 complete control), read-out: Plant response rating, Velvetleaf; for pest or weed control at 125 g/ha: 125 g ai/ha; for pest or weed control at 500 g/ha: 500 g ai/ha, approx. 10 d", "summary_of_the_method": "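Test chemicals in a non-phytotoxic solvent with surfactant were applied as a directed soil spray preemergence to seeds sown in loam/sand. Postemergence sprays went to plants 2–10 cm tall at the one- to two-leaf stage. A dash means no result.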"}, "[2]": {"tested_on": "wheat (winter wheat)", "assay": "Test C preemergence", "format": "in vivo, Triticum aestivum", "conditions": "for Wheat plant response rating (0 to 100): Preemergence, visual rating after 13 to 15 d; for Plant response rating (scale of 0 to 100 where 0 is no effect and 100 is complete control): Wheat, preemergence, 250 g ai/ha", "description": "(§1) Seeds of plant species selected from blackgrass (Alopecurus myosuroides), ryegrass, Italian (Italian ryegrass, Lolium multiflorum), wheat (winter wheat, Triticum aestivum), galium (catchweed bedstraw, Galium aparine), corn (Zea mays), crabgrass, large (large crabgrass, Digitaria sanguinalis), foxtail, giant, (giant foxtail, Setaria faberii), johnsongrass (Sorghum halepense), lambsquarters (Chenopodium album), morningglory (Ipomoea coccinea), nutsedge, yellow (yellow nutsedge, Cyperus esculentus), pigweed (Amaranthus retroflexus), ragweed (common ragweed, Ambrosia elatior), soybean (Glycine max), barnyardgrass (Echinochloa crus-galli), oilseed rape (Brassica napus), waterhemp (common waterhemp, Amaranthus rudis), and velvetleaf (Abutilon theophrasti) were planted into a blend of loam soil and sand and treated preemergence with test chemicals formulated in a non-phytotoxic solvent mixture which included a surfactant. At the same time, plants selected from these crop and weed species and also chickweed (common chickweed, Stellaria media), oat, wild (wild oat, Avena fatua), and kochia (Kochia scoparia), were planted in pots containing Sunshine Redi-Earth® planting medium comprising spaghnum peat moss, vermiculite, starter nutrients and dolomitic limestone and treated with postemergence applications of test chemicals formulated in the same manner. Plants ranged in height from 2 to 18 cm (1- to 4-leaf stage) for postemergence treatments. […] A dash (-) response means no test result."}, "[3]": {"tested_on": "corn", "assay": "Test C preemergence", "format": "in vivo, Zea mays", "conditions": "for Plant response rating (scale of 0 to 100 where 0 is no effect and 100 is complete control): Corn, preemergence; for Corn plant response rating (0 to 100): Preemergence, visual rating after 13 to 15 d", "description": "as §1"}, "[4]": {"tested_on": "johnsongrass", "assay": "Test C preemergence", "format": "in vivo, Sorghum halepense", "conditions": "for Plant response rating (scale of 0 to 100 where 0 is no effect and 100 is complete control): Johnsongrass, preemergence; for Johnsongrass plant response rating (0 to 100): Preemergence, visual rating after 13 to 15 d", "description": "as §1"}, "[5]": {"tested_on": "velvetleaf", "assay": "Test C preemergence", "format": "in vivo, Abutilon theophrasti", "conditions": "for Velvetleaf plant response rating (0 to 100): Preemergence, visual rating after 13 to 15 d; for Plant response rating (scale of 0 to 100 where 0 is no effect and 100 is complete control): Velvetleaf, preemergence, 250 g ai/ha", "description": "as §1"}},
  "data": [
    {"smiles": "CCn1nc(-c2ccc(F)cc2)nc1C(=O)c1ccnc(C(F)(F)F)c1", "note": "[Compound 19, [1-ethyl-3-(4-fluorophenyl)-1H-1,2,4-triazol-5-yl][2-(trifluoromethyl)-4-pyridinyl]methanone]", "values": [
      {"measurement": "pest or weed control at 125 g/ha", "setting": "[1]", "value": 0, "unit": "%"},
      {"measurement": "pest or weed control at 500 g/ha", "setting": "[1]", "value": 0, "unit": "%"}
    ]},
    {"smiles": "COc1nc(-c2ccc(F)cc2)nn1Cc1ccnc(C(F)(F)F)c1", "note": "[Compound 9, 4-[[3-(4-fluorophenyl)-5-methoxy-1H-1,2,4-triazol-1-yl]methyl]-2-(trifluoromethyl)pyridine]", "values": [
      {"measurement": "pest or weed control at 125 g/ha", "setting": "[1]", "value": 0, "unit": "%"},
      {"measurement": "pest or weed control at 500 g/ha", "setting": "[1]", "value": 80, "unit": "%"},
      {"measurement": "Wheat plant response rating (0 to 100)", "setting": "[2]; 31 g ai/ha", "value": 0},
      {"measurement": "Wheat plant response rating (0 to 100)", "setting": "[2]; 62 g ai/ha", "value": 5},
      {"measurement": "Plant response rating (scale of 0 to 100 where 0 is no effect and 100 is complete control)", "setting": "[2]", "value": 25},
      {"measurement": "Plant response rating (scale of 0 to 100 where 0 is no effect and 100 is complete control)", "setting": "[3]; 125 g ai/ha", "value": 25},
      {"measurement": "Plant response rating (scale of 0 to 100 where 0 is no effect and 100 is complete control)", "setting": "[3]; 250 g ai/ha", "value": 55},
      {"measurement": "Corn plant response rating (0 to 100)", "setting": "[3]; 31 g ai/ha", "value": 0},
      {"measurement": "Corn plant response rating (0 to 100)", "setting": "[3]; 62 g ai/ha", "value": 5},
      {"measurement": "Plant response rating (scale of 0 to 100 where 0 is no effect and 100 is complete control)", "setting": "[4]; 125 g ai/ha", "value": 65},
      {"measurement": "Plant response rating (scale of 0 to 100 where 0 is no effect and 100 is complete control)", "setting": "[4]; 250 g ai/ha", "value": 80},
      {"measurement": "Johnsongrass plant response rating (0 to 100)", "setting": "[4]; 31 g ai/ha", "value": 5},
      {"measurement": "Johnsongrass plant response rating (0 to 100)", "setting": "[4]; 62 g ai/ha", "value": 20},
      {"measurement": "Velvetleaf plant response rating (0 to 100)", "setting": "[5]; 31 g ai/ha", "value": 20},
      {"measurement": "Velvetleaf plant response rating (0 to 100)", "setting": "[5]; 62 g ai/ha", "value": 25},
      {"measurement": "Plant response rating (scale of 0 to 100 where 0 is no effect and 100 is complete control)", "setting": "[5]", "value": 60}
    ]},
    {"smiles": "CCn1nc(-c2ccc(F)cc2)nc1C(O)c1ccnc(C(F)(F)F)c1", "note": "(stereo not drawn) [Compound 15, α-[1-Ethyl-3-(4-fluorophenyl)-1H-1,2,4-triazol-5-yl]-2-(trifluoromethyl)-4-pyridinemethanol]", "values": [
      {"measurement": "pest or weed control at 125 g/ha", "setting": "[1]", "value": 0, "unit": "%"},
      {"measurement": "pest or weed control at 500 g/ha", "setting": "[1]", "value": 0, "unit": "%"}
    ]},
    {"smiles": "COc1nc(-c2ccccc2)nn1Cc1ccnc(C(F)(F)F)c1", "note": "[Compound 32]", "values": [
      {"measurement": "Wheat plant response rating (0 to 100)", "setting": "[2]; 31 g ai/ha", "value": 0},
      {"measurement": "Wheat plant response rating (0 to 100)", "setting": "[2]; 62 g ai/ha", "value": 0},
      {"measurement": "Plant response rating (scale of 0 to 100 where 0 is no effect and 100 is complete control)", "setting": "[2]", "value": 0},
      {"measurement": "Plant response rating (scale of 0 to 100 where 0 is no effect and 100 is complete control)", "setting": "[3]; 125 g ai/ha", "value": 5},
      {"measurement": "Plant response rating (scale of 0 to 100 where 0 is no effect and 100 is complete control)", "setting": "[3]; 250 g ai/ha", "value": 20},
      {"measurement": "Corn plant response rating (0 to 100)", "setting": "[3]; 31 g ai/ha", "value": 0},
      {"measurement": "Corn plant response rating (0 to 100)", "setting": "[3]; 62 g ai/ha", "value": 0},
      {"measurement": "Plant response rating (scale of 0 to 100 where 0 is no effect and 100 is complete control)", "setting": "[4]; 125 g ai/ha", "value": 30},
      {"measurement": "Plant response rating (scale of 0 to 100 where 0 is no effect and 100 is complete control)", "setting": "[4]; 250 g ai/ha", "value": 60},
      {"measurement": "Johnsongrass plant response rating (0 to 100)", "setting": "[4]; 31 g ai/ha", "value": 0},
      {"measurement": "Johnsongrass plant response rating (0 to 100)", "setting": "[4]; 62 g ai/ha", "value": 0},
      {"measurement": "Velvetleaf plant response rating (0 to 100)", "setting": "[5]; 31 g ai/ha", "value": 20},
      {"measurement": "Velvetleaf plant response rating (0 to 100)", "setting": "[5]; 62 g ai/ha", "value": 10},
      {"measurement": "Plant response rating (scale of 0 to 100 where 0 is no effect and 100 is complete control)", "setting": "[5]", "value": 60}
    ]},
    {"smiles": "Cn1nc(-c2ccc(F)cc2)nc1Oc1cccc(C(F)(F)F)c1", "note": "[Compound 5, 3-(4-fluorophenyl)-1-methyl-5-[3-(trifluoromethyl)phenoxy]-1H-1,2,4-triazole]", "values": [
      {"measurement": "pest or weed control at 125 g/ha", "setting": "[1]", "value": 0, "unit": "%"},
      {"measurement": "pest or weed control at 500 g/ha", "setting": "[1]", "value": 0, "unit": "%"}
    ]},
    {"smiles": "CCCn1nc(-c2ccc(F)cc2)nc1Cc1ccnc(C(F)(F)F)c1", "note": "[Compound 17, 4-[[3-(4-fluorophenyl)-1-propyl-1H-1,2,4-triazol-5-yl]methyl]-2-(trifluoromethyl)pyridine]", "values": [
      {"measurement": "pest or weed control at 125 g/ha", "setting": "[1]", "value": 90, "unit": "%"},
      {"measurement": "pest or weed control at 500 g/ha", "setting": "[1]", "value": 100, "unit": "%"}
    ]},
    {"smiles": "Cn1nc(-c2ccc(F)cc2)nc1C(O)c1ccnc(C(F)(F)F)c1", "note": "(stereo not drawn) [Compound 14, α-[3-(4-fluorophenyl)-1-methyl-1H-1,2,4-triazol-5-yl]-2-(trifluoromethyl)-4-pyridinemethanol]", "values": [
      {"measurement": "pest or weed control at 125 g/ha", "setting": "[1]", "value": 0, "unit": "%"},
      {"measurement": "pest or weed control at 500 g/ha", "setting": "[1]", "value": 0, "unit": "%"}
    ]},
    {"smiles": "CS(=O)(=O)c1nc(-c2ccc(F)cc2)nn1Cc1ccnc(C(F)(F)F)c1", "note": "[Compound 29, 4-[[3-(4-fluorophenyl)-5-(methylsulfonyl)-1H-1,2,4-triazole-1-yl]methyl]-2-(trifluoromethyl)pyridine]", "values": [
      {"measurement": "pest or weed control at 125 g/ha", "setting": "[1]", "value": 0, "unit": "%"},
      {"measurement": "pest or weed control at 500 g/ha", "setting": "[1]", "value": 0, "unit": "%"}
    ]}
  ]
}
